These results are taken from US20030176381A1, “Hyaluronic acid in the treatment of cancer” (priority 2002, published 2003).

Holding throughout (format): cell-based
Assay [1] relates to B16F1 murine melanoma cells. Description: MTT cell proliferation, B16F1. As to conditions: 48 h. The method, then: (§1) Cell proliferation was measured using dimethylthiazoldiphenyltetrazolium (MTT) reduction (Mosman et al. J. Immunol. Methods 65:55, 1983). Unless otherwise stated, 100 Al of 5 mg of MTT (Sigma-Aldrich, St. Louis, Mo., USA) dissolved in 1 ml of PBS was added into each well. After 4 h, medium was removed from each well, 1.0 ml of acid-isopropanol (0.04 N HCI in isopropanol) was added and reduced MTT was solubilized by mixing. Absorbency of the reaction product was measured at a wavelength of 570 nm using a multiplate spectrophotometer reader (Elx800 Model, Bio-TEK Instruments Inc., Winooski, Vt., USA).
(§2) Unless stated otherwise 1.0 x 10^5 cells/ml were seeded in 6-well flat-bottom tissue culture plates and were maintained for 48 h at 370 C in a 5% CO2 atmosphere.
(§3) PC-3, LNCAP and Du-145 human prostate cancer cells; MCF-7 human breast cancer cells; HT-1080 human fibrosarcoma cancer cells; B16F1 murine melanoma cells; and, UMUC-3, RT-4, HT-1376 and T-24 human bladder cancer cells were incubated with 0.8, 8.0 and 80 μg/ml of 5.0-7.5 x 10^5 Da HA (Table 2).

The subject of assay [2] is PC-3 human prostate cancer cells. Description: MTT cell proliferation, PC-3. The method, then:
as §1, §2, §3
PC-3. LNCaP and Du-145 human prostate cancer cells were incubated with 8.0 jg/ml of 5.0-7.5 x 105 Da HA or of <1.5 x 10^4 Da HA (Table 3).
Unless stated otherwise 2.0 x 10^4 cells/ml were seeded in 24-well plates and were maintained for 48 h at 370 C in a 5% CO2 atmosphere. MTT was used at 50 μl per well.
T-24 human bladder cancer cells, PC-3 and Du-145 human prostate cancer cells, and MCF-7 human breast cancer cell were incubated with saline or with 80.0 jg/ml of 5.0-7.5 x 105 Da HA +1.0 μg/ml of M-DNA (Table 4).
CD44 expression and the inhibition of proliferation by 5.0-7.5 x 10^5 Da HA were measured using Jurkat T cell leukemia cells; MCF-7 human breast cancer cells; RT-4, T-24, HT-1376 and UMUC-3 human bladder cancer cells; and, PC-3, Du-145 and LNCaP prostate cancer cells (Table 8)

Assay [3] concerns RT-4 human bladder cancer cells. Nature of the assay: MTT cell proliferation, RT-4. As to the method:
Cell proliferation was measured using dimethylthiazoldiphenyltetrazolium (MTT) reduction (Mosman et al. J. Immunol. Methods 65:55, 1983). Unless otherwise stated, 100 Al of 5 mg of MTT (Sigma-Aldrich, St. Louis, Mo., USA) dissolved in 1 ml of PBS was added into each well. After 4 h, medium was removed from each well, 1.0 ml of acid-isopropanol (0.04 N HCI in isopropanol) was added and reduced MTT was solubilized by mixing. Absorbency of the reaction product was measured at a wavelength of 570 nm using a multiplate spectrophotometer reader (Elx800 Model, Bio-TEK Instruments Inc., Winooski, Vt., USA). […] PC-3, LNCAP and Du-145 human prostate cancer cells; MCF-7 human breast cancer cells; HT-1080 human fibrosarcoma cancer cells; B16F1 murine melanoma cells; and, UMUC-3, RT-4, HT-1376 and T-24 human bladder cancer cells were incubated with 0.8, 8.0 and 80 μg/ml of 5.0-7.5 x 10^5 Da HA (Table 2). […] MTT was used at 50 μl per well. HT-1376, RT-4 and T-24 human bladder cancer cells were incubated with 0.8 pg/ml of 5.0-7.5 x 10^5 Da HA +1.0 ug/ml of MCC (Table 5). […] MCF-7 human breast cancer cells; RT-4, T-24, HT-1376 and UMUC-3 human bladder cancer cells; and, PC-3, Du-145 and LNCaP prostate cancer cells (Table 8)

As for Hyaluronic acid [5.0-7.5 × 10^5 Da HA], the “% INHIBITION of cell proliferation” value turned out to be 20% in assay [1] (HA 0.8 μg/ml); 20% in assay [1] (HA 8.0 μg/ml); 30% in assay [1] (HA 80.0 μg/ml); 15% in assay [2] (HA 0.8 μg/ml, 48 h); 26% in assay [2] (HA 8.0 μg/ml, 48 h, listed as 0.5-7.5 × 10^5 Da HA); 30% in assay [2] (HA 80.0 μg/ml alone (+ saline), 24-well, Example 6). In addition, the “% INHIBITION of cell proliferation” value turned out to be 0% in assay [3] (HA 0.008 μg/ml alone (+ saline)); 0% in assay [3] (HA 0.08 μg/ml alone (+ saline)); 12% in assay [3] (HA 0.8 μg/ml, 48 h); 13% in assay [3] (HA 8.0 μg/ml, 48 h); 5% in assay [3] (HA 80.0 μg/ml, 48 h); 13% in assay [3] (HA at 0.8 μg/ml alone (+ saline), 24-well, Example 6).
